From patent publication US12281109B2 (Merck Sharp & Dohme LLC, priority 2019, dated 2025) come the findings set out here.

For one test, the target named is human HDAC1 (Homo sapiens, UniProt Q13547). Description: Human HDAC enzyme inhibitor Fluor-De-Lys assay, HDAC1.
Another test addresses human HDAC2 (Homo sapiens, UniProt Q92769). Kind of test: Human HDAC enzyme inhibitor Fluor-De-Lys assay, HDAC2.
The target in test [1] is human HDAC3/SMRT heterodimer (Homo sapiens, UniProt O15379). Kind of test: Human HDAC enzyme inhibitor Fluor-De-Lys assay, HDAC3/SMRT.
Chain of human HDAC3/SMRT heterodimer (O15379 whole entry): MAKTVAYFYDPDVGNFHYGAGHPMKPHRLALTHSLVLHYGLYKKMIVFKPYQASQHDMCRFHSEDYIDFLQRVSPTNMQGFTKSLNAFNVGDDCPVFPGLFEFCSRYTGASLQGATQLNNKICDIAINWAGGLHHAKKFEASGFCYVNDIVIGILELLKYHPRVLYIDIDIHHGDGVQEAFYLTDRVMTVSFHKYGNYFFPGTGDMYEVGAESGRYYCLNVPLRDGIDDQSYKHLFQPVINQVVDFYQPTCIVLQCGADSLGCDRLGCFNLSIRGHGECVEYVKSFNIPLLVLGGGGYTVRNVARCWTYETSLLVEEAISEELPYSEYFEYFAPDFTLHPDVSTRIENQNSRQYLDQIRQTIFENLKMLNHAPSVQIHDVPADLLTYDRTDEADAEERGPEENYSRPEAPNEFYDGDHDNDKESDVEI
Chain of human HDAC3/SMRT heterodimer (Q9Y618 1-899 partner limits assumed): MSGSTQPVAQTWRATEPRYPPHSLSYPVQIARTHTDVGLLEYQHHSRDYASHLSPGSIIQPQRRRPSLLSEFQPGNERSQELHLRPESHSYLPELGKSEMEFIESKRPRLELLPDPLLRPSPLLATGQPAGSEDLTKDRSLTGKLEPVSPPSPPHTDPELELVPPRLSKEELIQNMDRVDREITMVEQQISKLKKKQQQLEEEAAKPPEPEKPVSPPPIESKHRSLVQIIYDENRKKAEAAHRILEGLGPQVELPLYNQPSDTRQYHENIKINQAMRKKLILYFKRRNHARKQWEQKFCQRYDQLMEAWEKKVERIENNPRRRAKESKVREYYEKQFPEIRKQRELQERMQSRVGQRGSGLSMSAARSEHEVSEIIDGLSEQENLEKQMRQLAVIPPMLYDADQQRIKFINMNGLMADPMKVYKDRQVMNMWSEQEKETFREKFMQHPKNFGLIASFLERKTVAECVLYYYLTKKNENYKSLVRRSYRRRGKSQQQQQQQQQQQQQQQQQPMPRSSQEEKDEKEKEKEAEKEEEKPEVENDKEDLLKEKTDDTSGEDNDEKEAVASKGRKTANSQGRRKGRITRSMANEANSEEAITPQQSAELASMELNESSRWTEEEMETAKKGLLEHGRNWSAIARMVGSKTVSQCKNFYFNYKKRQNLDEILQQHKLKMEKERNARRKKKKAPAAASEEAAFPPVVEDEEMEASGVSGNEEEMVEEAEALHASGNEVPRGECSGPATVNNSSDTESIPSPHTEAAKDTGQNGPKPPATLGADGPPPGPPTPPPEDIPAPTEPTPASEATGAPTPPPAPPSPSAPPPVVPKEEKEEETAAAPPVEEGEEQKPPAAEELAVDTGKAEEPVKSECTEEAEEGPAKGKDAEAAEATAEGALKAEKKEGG
Description: (§1) Human HDAC Enzyme Inhibitor Fluor-De-Lys Assay Materials
(§2) The histone deacetylase activities of HDAC1, HDAC2, HDAC3, HDAC6, and HDAC8 were measured in modified FLUOR DE LYS assays in 384-well format. In this assay, HDAC enzymes are initially incubated with an F-acetyl (or -trifluoroacetyl)-L-lysine-containing substrate with a C-terminal amide having aminomethylcoumarin as the amine component. HDACs cleave the F-acetyl group, rendering the resulting product susceptible to AMC cleavage by trypsin. The released AMC is then detected by its fluorescence.
(§3) The HDAC3/SMRT assay employed buffer B, consisting of 20 mM HEPES, pH 8.0, 1 mM MgCl2, 50 mM NaCl, 2.7 mM KCl, 0.05% BSA, 0.005% Tween 20, and 10 μM IP4. […] The HDAC8 assay employed buffer D, consisting of 20 mM HEPES, pH 8.0, 1 mM MgCl2, 100 mM NaCl, 20 mM KCl, 0.1% n-octyl-β-D-glucoside (Anatrace) and 0.05% BSA. All steps were performed at room temperature (23° C.). The assay was performed by pre-incubating serial dilutions of test compounds with the target HDAC prior to initiation with substrate. Each compound was titrated in a 10-point dose response, using a 1:3 fold dilution scheme, with 0.15 ul of solution added by ECHO555 to the plate, followed by the addition of 20 μl of the appropriate HDAC isoform diluted in appropriate assay buffer. […] Final conditions used for each assay were: 1. […] The reactions were stopped and developed by addition of 30 ul of HDAC developer solution containing a saturating level of HDAC inhibitor as follows: 1.
A further test deals with T1, HDAC6 (Homo sapiens, UniProt Q9UBN7).
T1 sequence (Q9UBN7 1-1215): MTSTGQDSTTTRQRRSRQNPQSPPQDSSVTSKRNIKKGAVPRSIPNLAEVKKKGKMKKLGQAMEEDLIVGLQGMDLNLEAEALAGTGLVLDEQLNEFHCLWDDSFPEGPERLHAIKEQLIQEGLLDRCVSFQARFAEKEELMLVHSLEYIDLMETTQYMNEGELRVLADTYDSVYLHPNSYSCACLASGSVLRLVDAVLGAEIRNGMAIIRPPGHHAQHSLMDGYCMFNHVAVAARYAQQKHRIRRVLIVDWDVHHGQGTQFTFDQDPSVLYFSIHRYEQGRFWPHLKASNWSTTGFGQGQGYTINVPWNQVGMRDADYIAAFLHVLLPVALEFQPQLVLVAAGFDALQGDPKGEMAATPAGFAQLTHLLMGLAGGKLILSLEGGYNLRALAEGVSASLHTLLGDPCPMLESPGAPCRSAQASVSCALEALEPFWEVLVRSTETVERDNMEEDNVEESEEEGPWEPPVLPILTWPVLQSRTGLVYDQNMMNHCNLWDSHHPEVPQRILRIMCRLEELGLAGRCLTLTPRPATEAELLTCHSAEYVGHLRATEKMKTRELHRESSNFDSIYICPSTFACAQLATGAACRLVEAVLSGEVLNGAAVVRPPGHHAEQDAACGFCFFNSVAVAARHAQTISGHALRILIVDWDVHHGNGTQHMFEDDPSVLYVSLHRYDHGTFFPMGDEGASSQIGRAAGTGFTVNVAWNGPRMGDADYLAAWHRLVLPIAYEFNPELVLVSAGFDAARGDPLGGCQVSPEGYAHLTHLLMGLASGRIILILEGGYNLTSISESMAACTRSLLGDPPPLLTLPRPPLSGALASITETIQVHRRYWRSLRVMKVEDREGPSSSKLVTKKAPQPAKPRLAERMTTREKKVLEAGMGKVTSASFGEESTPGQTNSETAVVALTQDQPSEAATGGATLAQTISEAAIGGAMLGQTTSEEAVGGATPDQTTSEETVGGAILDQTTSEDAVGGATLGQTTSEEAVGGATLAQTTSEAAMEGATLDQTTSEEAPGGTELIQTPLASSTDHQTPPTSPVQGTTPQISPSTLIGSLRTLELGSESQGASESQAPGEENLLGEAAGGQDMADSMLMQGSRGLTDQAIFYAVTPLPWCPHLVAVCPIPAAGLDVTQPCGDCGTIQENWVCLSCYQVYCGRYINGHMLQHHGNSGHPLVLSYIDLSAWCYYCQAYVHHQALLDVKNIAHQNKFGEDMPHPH
Description: Human HDAC enzyme inhibitor Fluor-De-Lys assay, HDAC6. It counts as biochemical. As to conditions: 1.3 nM total enzyme, 2.5 μM substrate BML-KI104, 3 hours pre-incubation, 60 min reaction, 23° C., 4-parameter fit.

The structures appear in SMILES notation.

Broadly, the IC50 is the midpoint of a concentration-inhibition curve.

Chain of human HDAC1 (Q13547 whole entry): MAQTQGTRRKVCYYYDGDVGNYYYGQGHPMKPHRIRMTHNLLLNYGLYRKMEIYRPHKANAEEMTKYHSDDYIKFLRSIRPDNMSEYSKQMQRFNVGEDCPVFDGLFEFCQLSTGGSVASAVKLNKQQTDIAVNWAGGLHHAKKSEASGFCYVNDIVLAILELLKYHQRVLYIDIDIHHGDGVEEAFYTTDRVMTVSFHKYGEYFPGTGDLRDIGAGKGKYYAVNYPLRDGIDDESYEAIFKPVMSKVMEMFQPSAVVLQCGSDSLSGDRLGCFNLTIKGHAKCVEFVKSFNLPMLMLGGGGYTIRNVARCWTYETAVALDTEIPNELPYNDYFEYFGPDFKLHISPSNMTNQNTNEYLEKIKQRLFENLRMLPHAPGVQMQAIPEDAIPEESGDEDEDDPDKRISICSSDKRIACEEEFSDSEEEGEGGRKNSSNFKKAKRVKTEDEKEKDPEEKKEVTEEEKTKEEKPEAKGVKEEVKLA
Chain of human HDAC2 (Q92769 whole entry): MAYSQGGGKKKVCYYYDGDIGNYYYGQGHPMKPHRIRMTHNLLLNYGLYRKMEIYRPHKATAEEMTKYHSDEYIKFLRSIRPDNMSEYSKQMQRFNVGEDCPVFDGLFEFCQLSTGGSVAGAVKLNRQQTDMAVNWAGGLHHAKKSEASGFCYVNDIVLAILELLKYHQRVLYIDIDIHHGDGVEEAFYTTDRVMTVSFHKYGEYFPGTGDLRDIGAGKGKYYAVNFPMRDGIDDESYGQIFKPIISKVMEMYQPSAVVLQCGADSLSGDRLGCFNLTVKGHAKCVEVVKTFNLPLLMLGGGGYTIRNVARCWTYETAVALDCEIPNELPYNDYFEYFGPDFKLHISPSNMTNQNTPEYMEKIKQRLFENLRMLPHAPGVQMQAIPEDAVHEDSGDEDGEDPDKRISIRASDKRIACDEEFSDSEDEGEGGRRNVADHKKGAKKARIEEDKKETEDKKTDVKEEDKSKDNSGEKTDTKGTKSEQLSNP
Description for HDAC6: as §1
Recombinant human HDAC8 (BML-SE145-0100) and HDAC10 (BML-SE559-0050) enzymes, HDAC substrates BML-KI104 and BML-K1178, and HDAC developer solutions BML-KI105 and BML-KI176 were purchased from Enzo Life Sciences. […] HDAC inhibitor suberoylanilide hydroxamic acid (SAHA) was obtained from Indofine and trichostatin A (TSA) was obtained from Sigma-Aldrich.
as §2, §3
Description for human HDAC1: as §1, §2, §3
Description for human HDAC2: as §1, §2, §3

As for `CSc1cc([N+](=O)[O-])ccc1C(=O)NCCCC[C@H](NC(=O)c1cncs1)c1ncc(-c2ccc3ccccc3c2)[nH]1` [Example 43, (S)-N-(5-(2-(methylthio)-4-nitrobenzamido)-1-(5-(naphthalen-2-yl)-1H-imidazol-2-yl)pentyl)thiazole-5-carboxamide], the IC50 against human HDAC1 was no less than 45 µM; on human HDAC2 it was no less than 45 µM; in test [1] it was 7 µM.
In the case of `COc1nc2ccccc2cc1-c1cnc(C2(CCCCNC(=O)c3ccccc3SC)CCC(=O)N2)[nH]1` (centres unmarked) [Example 62, N-(4-(2-(5-(2-methoxyquinolin-3-yl)-1H-imidazol-2-yl)-5-oxopyrrolidin-2-yl)butyl)-2-(methylthio)benzamide], the IC50 at human HDAC1 is no less than 45 µM; on human HDAC2, no less than 45 µM; in test [1], 0.671 µM.
Molecule `COc1nc2ccccc2cc1-c1cnc([C@H](CCCCNC(=O)c2nc(C)ccc2O)NC(=O)c2cncs2)[nH]1` [Example 61, (S)-N-(5-(3-hydroxy-6-methylpicolinamido)-1-(5-(2-methoxyquinolin-3-yl)-1H-imidazol-2-yl)pentyl)thiazole-5-carboxamide] yielded an IC50 at HDAC6 of no less than 45 µM.
As to `CCN1CCC2(CC1)C[C@@H]2C(=O)N[C@@H](CCCCNC(=O)c1ccccc1SC)c1ncc(-c2cc3ccccc3nc2OC)[nH]1` [Example 60, (S)-6-ethyl-N-((S)-1-(5-(2-methoxyquinolin-3-yl)-1H-imidazol-2-yl)-5-(2-(methylthio)benzamido)pentyl)-6-azaspiro[2.5]octane-1-carboxamide], the IC50 on HDAC6 stood at 11.6 µM.
`COc1ccc2[nH]c(C)c(C(C)C(=O)N[C@@H](CCCCNC(=O)c3ccccc3SC)c3ncc(-c4cc5ccccc5nc4OC)[nH]3)c2c1` (stereo partly drawn) [Example 58, N-((5S)-5-(2-(5-methoxy-2-methyl-1H-indol-3-yl)propanamido)-5-(5-(2-methoxyquinolin-3-yl)-1H-imidazol-2-yl)pentyl)-2-(methylthio)benzamide]: the results for the IC50 (on human HDAC1; against human HDAC2; in test [1]) were no less than 45 µM, no less than 45 µM and 0.379 µM, respectively.
For `Nc1cc(F)c(F)cc1C(=O)NCCCC[C@H](NC(=O)c1cncs1)c1ncc(-c2ccc3ccccc3c2)[nH]1` [Example 27, (S)-N-(5-(2-amino-4,5-difluorobenzamido)-1-(5-(naphthalen-2-yl)-1H-imidazol-2-yl)pentyl)thiazole-5-carboxamide], the IC50 against HDAC6 is no less than 45 µM.
As for `COc1nc2ccccc2cc1-c1cnc(C2(CCCCNC(=O)c3ccc(F)cc3SC)CCC(=O)N2)[nH]1` (centres unmarked) [Example 63], the IC50 against human HDAC1 was no less than 45 µM; at human HDAC2, no less than 45 µM; in test [1], 0.958 µM.
Turning to `Nc1ccc(F)c(F)c1C(=O)NCCCC[C@H](NC(=O)c1cncs1)c1ncc(-c2ccc3ccccc3c2)[nH]1` [Example 9, (S)-N-(5-(6-amino-2,3-difluorobenzamido)-1-(5-(naphthalen-2-yl)-1H-imidazol-2-yl)pntyl)thiazole-5-carboxamide], the IC50 at human HDAC1 is 7.88 µM; against human HDAC2 it was 15.7 µM; in test [1], 0.1 µM; against HDAC6, no less than 45 µM.
Regarding `CSc1cc(F)ccc1C(=O)NCCCC[C@H](NC(=O)c1cncs1)c1ncc(-c2ccc3ccccc3c2)[nH]1` [Example 5, (S)-N-(5-(4-fluoro-2-(methylthio)benzamido)-1-(5-(naphthalen-2-yl)-1H-imidazol-2-yl)pentyl)thiazole-5-carboxamide], the IC50 against HDAC6 is no less than 45 µM.
